In patent US20120258980A1, “Antibacterial Agent for Drug-Resistant Bacteria, Method for Screening for Same, and Use of Same” (priority 2009, published 2012):
Values after ≈ are worked out from the molar mass of the structure shown.

Assays:
[1] = system: MRSA, CA-MRSA and MSSA of Staphylococcus aureus; experiment: MIC measurement, Test Example 4 (MRSA, CA-MRSA and MSSA strains); assay type: cell-based; conditions: Staphylococcus aureus
Experimental: (§1) Each of the bacterial strains listed in Table 1-1 was shake-cultured at 37° C. overnight in 4 mL of a medium (Tryptical Soy Broth: TSB, product of Becton Dickinson and Company). FDA209P was used as a control.
(§2) After completion of culturing, the resultant culture was suspended in a cation-adjusted Mueller Hinton Broth (CAMHB, product of Becton Dickinson and Company). Then, the obtained bacterial culture was adjusted in absorbance with the CAMHB so that the absorbance at 578 nm of the bacterial culture was adjusted to 0.3 measured by an absorption spectrometer. In addition, the resultant bacterial culture was 500-fold diluted with the CAMHB.
(§3) Each of the 500-fold diluted, pre-cultured bacterial cultures was added at 50 μL/well to the CAMHB containing the quinolones and the nybomycins at various concentrations (50 μL/well), followed by statically culturing at 37° C. overnight.
(§4) After completion of culturing, the growth of the bacteria was visually determined based on turbidity to measure MIC in each bacterial strain.
Glycopeptides, imipenem, quinolones and nybomycins were studied for antibacterial activity against the bacterial strains listed in Table 2-1; i.e., MRSA, CA-MRSA and MSSA of Staphylococcus aureus.

[2] = system: VISA clinical isolates of MRSA (VI-MRSA) and of MSSA (VI-MSSA); experiment: microbe, parasite or virus in culture; assay type: cell-based, Staphylococcus aureus
Experimental: as §1, §2, §3, §4
Here, the glycopeptides used were VCM and TEIC. The β-lactam used was OXA.

Molecule `CN[C@H](CC(C)C)C(=O)N[C@H]1C(=O)N[C@@H](CC(N)=O)C(=O)N[C@H]2C(=O)N[C@H]3C(=O)N[C@H](C(=O)N[C@H](C(=O)O)c4cc(O)cc(O)c4-c4cc3ccc4O)[C@H](O)c3ccc(c(Cl)c3)Oc3cc2cc(c3O[C@@H]2O[C@H](CO)[C@@H](O)[C@H](O)[C@H]2O[C@H]2C[C@](C)(N)[C@H](O)[C@H](C)O2)Oc2ccc(cc2Cl)[C@H]1O` [VCM, vancomycin] has an MIC ([1]; ATCC 29213 / MRSA / MSSA, ATCC 29213, MSSA) of 0.5 µg/mL (≈ 0.345 µM), an MIC ([1]; COL, MRSA) of 0.5 µg/mL (≈ 0.345 µM) and an MIC ([1]; FDA209P / MRSA / MSSA, FDA209P, MSSA) of 0.5 µg/mL (≈ 0.345 µM). The MIC ([1]; ISA12-1, MRSA) was 0.5 µg/mL (≈ 0.345 µM), the MIC ([1]; ISA12-2, MRSA) was 0.5 µg/mL (≈ 0.345 µM) and the MIC ([1]; ISA35-1, MRSA) was 1 µg/mL (≈ 0.69 µM). For the same molecule, the MIC ([1]; ISA37-1, MSSA) was 1 µg/mL (≈ 0.69 µM), the MIC ([1]; ISA49-1, MSSA) was 1 µg/mL (≈ 0.69 µM) and the MIC ([1]; ISA51-1, MSSA) was 1 µg/mL (≈ 0.69 µM). For the same molecule, the MIC ([1]; ISA56-3, MRSA) was 2 µg/mL (≈ 1.38 µM), the MIC ([1]; ISA58-1, MRSA) was 1 µg/mL (≈ 0.69 µM) and the MIC ([1]; ISA62-1, MRSA) was 1 µg/mL (≈ 0.69 µM). It also gave an MIC ([1]; ISA73-1, MSSA) of 1 µg/mL (≈ 0.69 µM), an MIC ([1]; KBSA32, MRSA) of 0.5 µg/mL (≈ 0.345 µM) and an MIC ([1]; KBSA34, MRSA) of 1 µg/mL (≈ 0.69 µM). It also gave an MIC ([1]; KBSA72, MRSA) of 1 µg/mL (≈ 0.69 µM), an MIC ([1]; KBSA96, MRSA) of 1 µg/mL (≈ 0.69 µM) and an MIC ([1]; KBSA171, MRSA) of 1 µg/mL (≈ 0.69 µM). It also gave an MIC ([1]; KSA24, MRSA) of 1 µg/mL (≈ 0.69 µM), an MIC ([1]; KSA31, MRSA) of 1 µg/mL (≈ 0.69 µM) and an MIC ([1]; KSA36, MRSA) of 1 µg/mL (≈ 0.69 µM). The MIC ([1]; MRSA / MSSA / NCTC 8325, NCTC 8325, MSSA) was 1 µg/mL (≈ 0.69 µM), the MIC ([1]; MRSA / MSSA / USA300, USA300 FPR3757, CA-MRSA) was 1 µg/mL (≈ 0.69 µM) and the MIC ([1]; MW2, CA-MRSA) was 0.5 µg/mL (≈ 0.345 µM). For the same molecule, the MIC ([1]; N315, MRSA) was 0.5 µg/mL (≈ 0.345 µM), the MIC ([2]; Staphylococcus aureus, 99/3700-W, VI-MRSA, The United Kingdom) was 2 µg/mL (≈ 1.38 µM) and the MIC ([2]; Staphylococcus aureus, 99/3759-V, VI-MRSA, The United Kingdom) was 2 µg/mL (≈ 1.38 µM). The MIC ([2]; Staphylococcus aureus, 28160, VI-MRSA, South African Republic) was 4 µg/mL (≈ 2.76 µM), the MIC ([2]; Staphylococcus aureus, 98141, VI-MRSA, France) was 2 µg/mL (≈ 1.38 µM) and the MIC ([2]; Staphylococcus aureus, A7 (JCSC4842), VI-MRSA, Taiwan) was 3 µg/mL (≈ 2.07 µM). It also gave an MIC ([2]; Staphylococcus aureus, AMC11094, VI-MRSA, Korea) of 4 µg/mL (≈ 2.76 µM), an MIC ([2]; Staphylococcus aureus, B7 (JCSC4852), VI-MRSA, Taiwan) of 4 µg/mL (≈ 2.76 µM) and an MIC ([2]; Staphylococcus aureus, BR1, VI-MRSA, Brazil) of 2 µg/mL (≈ 1.38 µM). It also gave an MIC ([2]; Staphylococcus aureus, BR2, VI-MRSA, Brazil) of 4 µg/mL (≈ 2.76 µM), an MIC ([2]; Staphylococcus aureus, BR3, VI-MRSA, Brazil) of 8 µg/mL (≈ 5.52 µM) and an MIC ([2]; Staphylococcus aureus, BR4, VI-MRSA, Brazil) of 8 µg/mL (≈ 5.52 µM). It also gave an MIC ([2]; Staphylococcus aureus, BR5, VI-MRSA, Brazil) of 8 µg/mL (≈ 5.52 µM), an MIC ([2]; Staphylococcus aureus, HIP06297, VI-MRSA, America) of 4 µg/mL (≈ 2.76 µM) and an MIC ([2]; Staphylococcus aureus, HIP06854, VI-MRSA, America) of 4 µg/mL (≈ 2.76 µM). It also gave an MIC ([2]; Staphylococcus aureus, HIP07920, VI-MRSA, America) of 2 µg/mL (≈ 1.38 µM), an MIC ([2]; Staphylococcus aureus, HIP07930, VI-MRSA, America) of 4 µg/mL (≈ 2.76 µM) and an MIC ([2]; Staphylococcus aureus, HIP08926, VI-MRSA, America) of 4 µg/mL (≈ 2.76 µM). The MIC ([2]; Staphylococcus aureus, HIP09143, VI-MRSA, America) was 4 µg/mL (≈ 2.76 µM), the MIC ([2]; Staphylococcus aureus, HIP09313, VI-MRSA, America) was 4 µg/mL (≈ 2.76 µM) and the MIC ([2]; Staphylococcus aureus, HIP09433, VI-MRSA, America) was 2 µg/mL (≈ 1.38 µM). It also gave an MIC ([2]; Staphylococcus aureus, HIP09662, VI-MRSA, America) of 4 µg/mL (≈ 2.76 µM), an MIC ([2]; Staphylococcus aureus, HIP09735, VI-MRSA, America) of 4 µg/mL (≈ 2.76 µM) and an MIC ([2]; Staphylococcus aureus, HIP09737, VI-MSSA, America) of 4 µg/mL (≈ 2.76 µM). It also gave an MIC ([2]; Staphylococcus aureus, HIP09740, VI-MRSA, America) of 1 µg/mL (≈ 0.69 µM), an MIC ([2]; Staphylococcus aureus, HIP10267, VI-MRSA, America) of 4 µg/mL (≈ 2.76 µM) and an MIC ([2]; Staphylococcus aureus, HIP10540, VI-MRSA, America) of 4 µg/mL (≈ 2.76 µM). For the same molecule, the MIC ([2]; Staphylococcus aureus, HIP12864, VI-MRSA, America) was 4 µg/mL (≈ 2.76 µM), the MIC ([2]; Staphylococcus aureus, HIP13036, VI-MRSA, America) was 8 µg/mL (≈ 5.52 µM) and the MIC ([2]; Staphylococcus aureus, HIP13057, VI-MRSA, America) was 4 µg/mL (≈ 2.76 µM). For the same molecule, the MIC ([2]; Staphylococcus aureus, IL (HIP7737), VI-MRSA, America) was 4 µg/mL (≈ 2.76 µM), the MIC ([2]; Staphylococcus aureus, JCSC7193, VI-MRSA, Thailand) was 4 µg/mL (≈ 2.76 µM) and the MIC ([2]; Staphylococcus aureus, JCSC7195, VI-MRSA, Thailand) was 1 µg/mL (≈ 0.69 µM). It also gave an MIC ([2]; Staphylococcus aureus, JCSC7203, VI-MRSA, Thailand) of 2 µg/mL (≈ 1.38 µM), an MIC ([2]; Staphylococcus aureus, LIM2, VI-MRSA, France) of 2 µg/mL (≈ 1.38 µM) and an MIC ([2]; Staphylococcus aureus, LY-1999-01, VI-MSSA, Oman) of 4 µg/mL (≈ 2.76 µM). For the same molecule, the MIC ([2]; Staphylococcus aureus, LY-1999-03, VI-MRSA, Oman) was 4 µg/mL (≈ 2.76 µM), the MIC ([2]; Staphylococcus aureus, MI (HIP5827), VI-MRSA, America) was 8 µg/mL (≈ 5.52 µM) and the MIC ([2]; Staphylococcus aureus, MRSA / MSSA / NRS 76 / VISA, NRS76, VI-MSSA, America) was 2 µg/mL (≈ 1.38 µM). The MIC ([2]; Staphylococcus aureus, MRSA / MSSA / NRS 79 / VISA, NRS79, VI-MRSA, America) was 2 µg/mL (≈ 1.38 µM), the MIC ([2]; Staphylococcus aureus, MRSA / MSSA / NRS 118 / VISA, NRS118, VI-MRSA, America) was 8 µg/mL (≈ 5.52 µM) and the MIC ([2]; Staphylococcus aureus, MRSA / MSSA / NRS 126 / VISA, NRS126, VI-MRSA, America) was 4 µg/mL (≈ 2.76 µM). It also gave an MIC ([2]; Staphylococcus aureus, Mu3, VI-MRSA, Japan) of 0.5 µg/mL (≈ 0.345 µM), an MIC ([2]; Staphylococcus aureus, Mu50, VI-MRSA, Japan) of 8 µg/mL (≈ 5.52 µM) and an MIC ([2]; Staphylococcus aureus, NJ (HIP5836), VI-MRSA, America) of 8 µg/mL (≈ 5.52 µM). For the same molecule, the MIC ([2]; Staphylococcus aureus, P1V44, VI-MSSA, Belgium) was 2 µg/mL (≈ 1.38 µM), the MIC ([2]; Staphylococcus aureus, PC, VI-MRSA, America) was 8 µg/mL (≈ 5.52 µM) and the MIC ([2]; Staphylococcus aureus, SA MER-S6, VI-MSSA, France) was 4 µg/mL (≈ 2.76 µM). For the same molecule, the MIC ([2]; Staphylococcus aureus, SA MER-S12, VI-MSSA, France) was 4 µg/mL (≈ 2.76 µM) and the MIC ([2]; Staphylococcus aureus, SA MER-S20, VI-MSSA, France) was 4 µg/mL (≈ 2.76 µM).
